Experimental data as given in ChEMBL document CHEMBL1201862, “PubChem BioAssay data set” (2004).
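Dose response: 5 concentrations. Exposure: 48 h. Format: 96-well plates. Endpoint: linear interpolation; highest concentration if not reached. The concentration for 50% growth inhibition is given as GI50.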 Activity calls are given as the source filed them. Cut-off read from the data, not from the text of the source: active = GI50 up to about 1.1 µM and inactive = higher.

What was measured:
Assay in all cases: NCI-60 cell line screen, 48 h
[1] = system: SK-MEL-2
[2] = system: SN12C
[3] = system: IGROV-1
[4] = system: HOP-92
[5] = system: HCT-116
[6] = system: SK-MEL-5
[7] = system: U-251
[8] = system: Malme-3M
[9] = system: SF-295
[10] = system: NCI/ADR-RES
[11] = system: SK-OV-3
[12] = system: UO-31
[13] = system: RPMI-8226
[14] = system: CCRF-CEM
[15] = system: TK-10
[16] = system: DU-145
[17] = system: UACC-257
[18] = system: A549
[19] = system: A498
[20] = system: OVCAR-3
[21] = system: PC-3
[22] = system: NCI-H226
[23] = system: MOLT-4
[24] = system: NCI-H23
[25] = system: NCI-H522
[26] = system: M14
[27] = system: CAKI-1
[28] = system: SNB-75
[29] = system: EKVX
[30] = system: SF-268
[31] = system: Hs-578T
[32] = system: HCT-15
[33] = system: OVCAR-4
[34] = system: RXF 393
[35] = system: NCI-H460
[36] = system: ACHN
[37] = system: MDA-N
[38] = system: SNB-19
[39] = system: T47D
[40] = system: MDA-MB-231
[41] = system: HT-29
[42] = system: MCF7
[43] = system: UACC-62
[44] = system: BT-549
[45] = system: SF-539
[46] = system: KM12
[47] = system: HL-60
[48] = system: MDA-MB-435
[49] = system: K562
[50] = system: OVCAR-8
[51] = system: HOP-62
[52] = system: 786-0
[53] = system: OVCAR-5
[54] = system: LOX IMVI
[55] = system: SK-MEL-28
[56] = system: SW-620
[57] = system: SR
[58] = system: COLO 205

For `Cc1nc(N)nc2ccccc12`, the GI50 [1] was > 100 µM (inactive), the GI50 [2] was > 100 µM (inactive) and the GI50 [3] was > 100 µM (inactive). The GI50 [4] was > 100 µM (inactive), the GI50 [5] was > 100 µM (inactive) and the GI50 [6] was > 100 µM (inactive). The GI50 [7] was > 100 µM (inactive), the GI50 [8] was > 100 µM (inactive) and the GI50 [9] was > 100 µM (inactive). For the same compound, the GI50 [10] was > 100 µM (inactive), the GI50 [11] was > 100 µM (inactive) and the GI50 [12] was > 100 µM (inactive). For the same compound, the GI50 [13] was > 100 µM (inactive), the GI50 [14] was > 100 µM (inactive) and the GI50 [15] was > 100 µM (inactive). For the same compound, the GI50 [16] was > 100 µM (inactive), the GI50 [17] was > 100 µM (inactive) and the GI50 [18] was > 100 µM (inactive). For the same compound, the GI50 [19] was > 100 µM (inactive), the GI50 [20] was > 100 µM (inactive) and the GI50 [21] was > 100 µM (inactive). The GI50 [22] was 0.172 µM (active), the GI50 [23] was > 100 µM (inactive) and the GI50 [24] was > 100 µM (inactive). The GI50 [25] was > 100 µM (inactive), the GI50 [26] was > 100 µM (inactive) and the GI50 [27] was > 100 µM (inactive). For the same compound, the GI50 [28] was 60 µM (inactive), the GI50 [29] was 44.8 µM (inactive) and the GI50 [30] was > 100 µM (inactive). For the same compound, the GI50 [31] was > 100 µM (inactive), the GI50 [32] was over 100 µM and the GI50 [33] was > 100 µM (inactive). For the same compound, the GI50 [34] was > 100 µM (inactive), the GI50 [35] was > 100 µM (inactive) and the GI50 [36] was > 100 µM (inactive). The GI50 [37] was > 100 µM (inactive), the GI50 [38] was > 100 µM (inactive) and the GI50 [39] was > 100 µM (inactive). For the same compound, the GI50 [40] was > 100 µM (inactive), the GI50 [41] was > 100 µM (inactive) and the GI50 [42] was > 100 µM (inactive). For the same compound, the GI50 [43] was > 100 µM (inactive), the GI50 [44] was > 100 µM (inactive) and the GI50 [45] was > 100 µM (inactive). The GI50 [46] was > 100 µM (inactive), the GI50 [47] was > 100 µM (inactive) and the GI50 [48] was > 100 µM (inactive). For the same compound, the GI50 [49] was > 100 µM (inactive), the GI50 [50] was > 100 µM (inactive) and the GI50 [51] was > 100 µM (inactive). The GI50 [52] was > 100 µM (inactive), the GI50 [53] was > 100 µM (inactive) and the GI50 [54] was > 100 µM (inactive). For the same compound, the GI50 [55] was > 100 µM (inactive), the GI50 [56] was > 100 µM (inactive) and the GI50 [57] was > 100 µM (inactive).
`O=C(O)c1ccccc1NCn1c(=S)sc2ccccc21` was tested, and the GI50 [1] was > 100 µM (inactive), the GI50 [2] was 35.1 µM (inactive) and the GI50 [3] was 57.4 µM (inactive). For the same compound, the GI50 [4] was > 100 µM (inactive), the GI50 [5] was 40.7 µM (inactive) and the GI50 [7] was 47.3 µM (inactive). For the same compound, the GI50 [8] was 35.5 µM (inactive), the GI50 [9] was 45.6 µM (inactive) and the GI50 [10] was > 100 µM (inactive). The GI50 [11] was > 100 µM (inactive), the GI50 [12] was 51.2 µM (inactive) and the GI50 [13] was 32.3 µM (inactive). For the same compound, the GI50 [14] was 23.4 µM (inactive), the GI50 [15] was 94.6 µM (inactive) and the GI50 [16] was 37.2 µM (inactive). The GI50 [17] was 31.8 µM (inactive), the GI50 [18] was 68.7 µM (inactive) and the GI50 [58] was 25.7 µM (inactive). For the same compound, the GI50 [19] was > 100 µM (inactive), the GI50 [20] was 30.6 µM (inactive) and the GI50 [21] was 45.6 µM (inactive). The GI50 [23] was 35.1 µM (inactive), the GI50 [24] was 28.2 µM (inactive) and the GI50 [25] was 27 µM (inactive). For the same compound, the GI50 [26] was > 100 µM (inactive), the GI50 [27] was > 100 µM (inactive) and the GI50 [28] was > 100 µM (inactive). For the same compound, the GI50 [29] was > 100 µM (inactive), the GI50 [30] was 45.5 µM (inactive) and the GI50 [31] was > 100 µM (inactive). The GI50 [32] was 66.5 µM, the GI50 [33] was 56 µM (inactive) and the GI50 [34] was > 100 µM (inactive). The GI50 [35] was 21.9 µM (inactive), the GI50 [36] was 35.6 µM (inactive) and the GI50 [37] was > 100 µM (inactive). For the same compound, the GI50 [38] was 76.7 µM (inactive), the GI50 [39] was 37.1 µM (inactive) and the GI50 [40] was 51.8 µM (inactive). The GI50 [41] was 59.8 µM (inactive), the GI50 [42] was 22.4 µM (inactive) and the GI50 [43] was 44.3 µM (inactive). The GI50 [44] was > 100 µM (inactive), the GI50 [45] was 18.3 µM (inactive) and the GI50 [46] was 63 µM (inactive). The GI50 [47] was 19.6 µM (inactive), the GI50 [48] was 83 µM (inactive) and the GI50 [49] was > 100 µM (inactive). For the same compound, the GI50 [50] was > 100 µM (inactive), the GI50 [51] was 45.1 µM (inactive) and the GI50 [52] was 54.3 µM (inactive). The GI50 [53] was > 100 µM (inactive), the GI50 [54] was 20 µM (inactive) and the GI50 [55] was > 100 µM (inactive). The GI50 [56] was 36 µM (inactive) and the GI50 [57] was 29.6 µM (inactive).
